Laboratory results taken from patent US4146631A, “Benzamide derivatives” (May & Baker Limited, priority 1976, dated 1979).

What was measured:
[1] = tested on: passive cutaneous anaphylactic (PCA) reaction; assay: Passive cutaneous anaphylactic (PCA) reaction, reagin-allergen combination, in rats; format: in vivo; settings: Rattus norvegicus; for ED100: intravenous, just before injection of allergen, read-out: ED100 (intravenous dose which produces 100% inhibition of the PCA reaction); for inhibition in vivo at 100 mg/kg: oral dose of 100 mg/kg; for inhibition in vivo at 100 mg/kg / ED50: thirty minutes before intravenous allergen; for ED50: oral, read-out: ED50 (oral dose which produces 50% inhibition of the PCA reaction)
Description: In pharmacological tests the benzamide derivatives of general formula I suppress the passive cutaneous anaphylactic (PCA) reaction resulting from combination of tissue-fixed reaginic antibodies with the appropriate antigenic material (termed reagin-allergen combination) and carried out in an essentially similar manner to that described by Ogilvie [Nature (Lond.), (1964), 204, 91-92; Immunology, (1967), 12, 112-131]. In the method used to test these compounds sera were obtained from rats which had been infected with larvae of the nematode parasite Nippostrongylus brasiliensis; as a result of the parasitic infestation reaginic antibodies are elaborated in the host mammal and are found in sera removed from such animals. Other, non-infected, rats received intradermal injections of appropriate dilutions of such sera and were then given the allergenic material along with Evans' blue dye intravenously forty-eight hours later.
The allergenic material consisted of supernatant fluid after centrifugation of homogenates of adult Nippostrongylus brasiliensis worms which had been macerated in Tyrode's solution. The sites of PCA reactions were visualised by the effusion of Evan's blue dye from the circulation into those areas as a result of increased capillary permeability caused by the release of biologically-active substances from cells where reagin-allergen combination had occurred. The new compounds when given intravenously to the rats just before injection of allergen, or administered orally thirty minutes before intravenous injection of allergen, were able to prevent the development of the PCA reaction, as shown below in Table I, Table II and Table III.

[2] = Acute oral toxicity in mice; settings: mouse, in vivo, highest dose used 1000 mg/kg, read-out: LD50 (doses lethal to 50% of mice tested)
Description: Mice were each treated orally with one of the compounds of formula I, and they were observed daily until there had been at least 3 consecutive days without any deaths. The LD50 figures obtained (doses lethal to 50% of mice tested) are shown below in Table IV, expressed in mg/kg animal body weight.
The symbol ">" means "greater than" in this specification. Where the LD50 is said to be ">1000," a more precise estimation of the LD50 was not possible because the numbers of deaths was too small, even at the highest dose used, 1000 mg/kg.

[3] = Acute intravenous toxicity in mice; settings: mouse, in vivo
Description: Mice were each treated intravenously with an aqueous solution of the triethanolamine salt or sodium salt of one of the compounds of formula I, and they were observed until there had been at least 3 consecutive days without any deaths. The LD50 figures obtained (doses lethal to 50% of mice tested) are shown below in Table V, expressed in mg/kg animal body weight. In Table V, "Na" means that the sodium salt was used and "T" means that the triethanolamine salt was used.
The aqueous solutions were prepared as follows:
A mixture of the test compound and water was treated gradually with triethanolamine until complete solution occurred. The solution was then diluted with water to a concentration of test compound of either 1% w/v or 2% w/v.
The test compound was dissolved in aqueous sodium hydroxide (1N) and the solution was brought to pH 8 by treatment with hydrochloric acid. The solution was then diluted with water to a concentration of test compound of 2% w/v.
Various volumes of these solutions were then administered to the mice.

[4] = triethanolamine salt (T), 2% w/v test solution
[5] = sodium salt (Na), 2% w/v test solution

Row | SMILES | ED100 [1] | inhibition in vivo at 100 mg/kg [1] | ED50 [1] | LD50 [2] | LD50 [3, 4] | LD50 [3, 5] | LD50 ([3]; triethanolamine salt (T), 1% w/v solution for lower doses, 2% w/v for higher doses)
1 | O=C(Nc1nnn[nH]1)c1cc([N+](=O)[O-])cc([N+](=O)[O-])c1O [Compound AE, 2-hydroxy-3,5-dinitro-N-(tetrazol-5-yl)benzamide] | 0.05 mg/kg | 80% | 0.1 to 0.45 mg/kg | > 1000 mg/kg | 490 mg/kg | – | –
2 | CC(=O)c1c(C)c(C)cc(C(=O)Nc2nnn[nH]2)c1O [BX, 3-acetyl-2-hydroxy-4,5-dimethyl-N-(tetrazol-5-yl)benzamide] | 20 mg/kg | – | – | > 1000 mg/kg | 870 mg/kg | – | –
3 | COc1ccc(O)c(C(=O)Nc2nnn[nH]2)c1 [AP, 2-hydroxy-5-methoxy-N-(tetrazol-5-yl)benzamide] | 0.5 mg/kg | 75% | 100 mg/kg | > 1000 mg/kg | – | 950 mg/kg | –
4 | CC(=O)c1ccc(O)c(C(=O)Nc2nnn[nH]2)c1 [Compound AV, 5-acetyl-2-hydroxy-N-(tetrazol-5-yl)benzamide] | 10 mg/kg | 16% | – | > 1000 mg/kg | 645 mg/kg | – | –
5 | CC(C)(C)c1ccc(C(=O)Nc2nnn[nH]2)c(O)c1 [BA, 4-tert-butyl-2-hydroxy-N-(tetrazol-5-yl)benzamide] | 10 mg/kg | 37% | – | > 1000 mg/kg | 230 mg/kg | – | –
6 | CCC(C)c1cc(C(C)=O)c(O)c(C(=O)Nc2nnn[nH]2)c1 (stereo not shown) [Compound BY, 3-acetyl-5-sec-butyl-2-hydroxy-N-(tetrazol-5-yl)benzamide] | 0.5 mg/kg | 43% | 1.8 mg/kg | > 1000 mg/kg | 180 mg/kg | – | –
7 | CC(=O)c1cc(Cl)cc(C(=O)Nc2nnn[nH]2)c1O [Compound AU, 3-acetyl-5-chloro-2-hydroxy-N-(tetrazol-5-yl)benzamide] | 2 mg/kg | 71% | 1.8 mg/kg | > 1000 mg/kg | 245 mg/kg | – | –
8 | N#Cc1cccc(C(=O)Nc2nnn[nH]2)c1O [CJ, 3-cyano-2-hydroxy-N-(tetrazol-5-yl)benzamide] | 0.5 mg/kg | 50% | 37 mg/kg | > 1000 mg/kg | > 1000 mg/kg | – | –
9 | Cc1cccc(C(=O)Nc2nnn[nH]2)c1O [AH, 2-hydroxy-3-methyl-N-(tetrazol-5-yl)benzamide] | 0.5 mg/kg | 82% | 10 mg/kg | > 1000 mg/kg | 770 mg/kg | – | –
10 | Cc1cc(C(=O)Nc2nnn[nH]2)c(O)c(C(=O)c2ccccc2)c1 [CR, 3-benzoyl-2-hydroxy-5-methyl-N-(tetrazol-5-yl)benzamide] | 1 mg/kg | 22% | – | > 1000 mg/kg | 350 mg/kg | – | –
11 | COc1cccc(C(=O)Nc2nnn[nH]2)c1O [Compound BE, 2-hydroxy-3-methoxy-N-(tetrazol-5-yl)benzamide] | 0.2 mg/kg | 62% | 18 mg/kg | > 1000 mg/kg | 580 mg/kg | – | –
12 | CC(=O)c1cccc(C(=O)Nc2nnn[nH]2)c1O [CA, 3-acetyl-2-hydroxy-N-(tetrazol-5-yl)benzamide] | 0.1 mg/kg | 64% | – | > 1000 mg/kg | 500 mg/kg | – | –
13 | CC(=O)c1cc(C)cc(C(=O)Nc2nnn[nH]2)c1O [AR, 3-acetyl-2-hydroxy-5-methyl-N-(tetrazol-5-yl)benzamide] | 0.1 mg/kg | 42% | 0.75 mg/kg | > 1000 mg/kg | 430 mg/kg | – | –
14 | O=C(Nc1nnn[nH]1)c1cc([N+](=O)[O-])ccc1O [AO, 2-hydroxy-5-nitro-N-(tetrazol-5-yl)benzamide] | 0.2 mg/kg | 48% | 100 mg/kg | > 1000 mg/kg | 870 mg/kg | – | –
15 | Cc1cc(C(=O)Nc2nnn[nH]2)c(O)c(S(=O)(=O)NC(C)(C)C)c1 [BT, 3-(N-tert-butylsulphamoyl)-2-hydroxy-5-methyl-N-(tetrazol-5-yl)benzamide] | – | – | – | > 1000 mg/kg | – | 500 mg/kg | –
16 | O=C(Nc1nnn[nH]1)c1ccc(Cl)cc1O [AX, 4-chloro-2-hydroxy-N-(tetrazol-5-yl)benzamide] | – | – | – | > 1000 mg/kg | 260 mg/kg | – | –
17 | CCCC(=O)c1cc(CC)cc(C(=O)Nc2nnn[nH]2)c1O [Compound CG, 3-butyryl-5-ethyl-2-hydroxy-N-(tetrazol-5-yl)benzamide] | 0.1 mg/kg | 55% | 2.2 mg/kg | > 1000 mg/kg | – | – | 270 mg/kg
18 | CCOc1cccc(C(=O)Nc2nnn[nH]2)c1O [AS, 3-ethoxy-2-hydroxy-N-(tetrazol-5-yl)benzamide] | 1 mg/kg | 76% | 10 mg/kg | > 1000 mg/kg | 560 mg/kg | – | –
19 | CC(=O)c1cc([N+](=O)[O-])cc(C(=O)Nc2nnn[nH]2)c1O [Compound CS, 3acetyl-2-hydroxy-5-nitro-N-(tetrazol-5-yl)benzamide] | 0.1 mg/kg | 54% | – | > 1000 mg/kg | 780 mg/kg | – | –
20 | CCCOc1cccc(C(=O)Nc2nnn[nH]2)c1O [Compound AN, 2-hydroxy-3-propoxy-N-(tetrazol-5-yl)benzamide] | 0.5 mg/kg | 87% | 40 mg/kg | > 1000 mg/kg | 480 mg/kg | – | –
21 | CC(=O)c1cc(C(=O)Nc2nnn[nH]2)c(O)c(C(C)=O)c1O [AW, 3,5-diacetyl-2,4-dihydroxy-N-(tetrazol-5-yl)benzamide] | 5 mg/kg | 84% | – | > 1000 mg/kg | 710 mg/kg | – | –
22 | CCC(=O)c1cc(CC)cc(C(=O)Nc2nnn[nH]2)c1O [CF, 5-ethyl-2-hydroxy-3-propionyl-N-(tetrazol-5-yl)benzamide] | 0.05 mg/kg | 41% | 0.27 mg/kg | > 1000 mg/kg | 280 mg/kg | – | –
23 | CCCc1cc(C(C)=O)c(O)c(C(=O)Nc2nnn[nH]2)c1 [Compound CD, 3-acetyl-2-hydroxy-5-propyl-N-(tetrazol-5-yl)benzamide] | 0.1 mg/kg | 64% | – | > 1000 mg/kg | 250 mg/kg | – | –
24 | CCc1cc(C(C)=O)c(O)c(C(=O)Nc2nnn[nH]2)c1 [BW, 3-acetyl-5-ethyl-2-hydroxy-N-(tetrazol-5-yl)benzamide] | 0.1 mg/kg | 51% | 0.1 mg/kg | > 1000 mg/kg | – | 320 mg/kg | –
25 | O=C(Nc1nnn[nH]1)c1cccc([N+](=O)[O-])c1O [AI, 2-hydroxy-3-nitro-N-(tetrazol-5-yl)benzamide] | 0.5 mg/kg | 68% | 5 to 30 mg/kg | > 1000 mg/kg | > 1000 mg/kg | – | –
26 | CC(=O)c1cc(C(=O)Nc2nnn[nH]2)c(O)c([N+](=O)[O-])c1 [CQ, 5-acetyl-2-hydroxy-3-nitro-N-(tetrazol-5-yl)benzamide] | 0.2 mg/kg | 56% | – | > 1000 mg/kg | 890 mg/kg | – | –
27 | CCC(=O)c1cc(C)cc(C(=O)Nc2nnn[nH]2)c1O [CE, 2-hydroxy-5-methyl-3-propionyl-N-(tetrazol-5-yl)benzamide] | 0.05 mg/kg | 99% | 0.4 mg/kg | > 1000 mg/kg | 270 mg/kg | – | –
28 | CC(=O)Nc1ccc(C(=O)Nc2nnn[nH]2)c(O)c1 [BB, 4-acetylamino-2-hydroxy-N-(tetrazol-5-yl)benzamide] | 1 mg/kg | 26% | – | > 1000 mg/kg | 645 mg/kg | – | –
29 | CSc1cccc(C(=O)Nc2nnn[nH]2)c1O [BI, 2-hydroxy-3-methylthio-N-(tetrazol-5-yl)benzamide] | 20 mg/kg | – | – | – | 580 mg/kg | – | –
30 | CCCCN(CCCC)S(=O)(=O)c1ccc(O)c(C(=O)Nc2nnn[nH]2)c1 [AQ, 5-(N,N-dibutylsulphamoyl)-2-hydroxy-N-(tetrazol-5-yl)benzamide] | – | – | – | > 1000 mg/kg | – | 280 mg/kg | –
